The results in this text go back to patent US20260256771A1, “GALUNISERTIB FOR USE IN THE TREATMENT OF ANDROGENIC ALOPECIA” (SAÚDE VIÁVEL, S.A., priority 2022, published 2026).

For one data set, the system named is cleaved Caspase 3. Nature of the data set: Immunohistochemistry of cryo-sectioned HFOCs: cleaved Caspase 3. It counts as cell-based, human. The settings on record: mainly detected in the DP; HFOCs treated with Galunisertib for 48 h vs untreated. The source says:
(§1) Hair growth percentages is normalized to day 0.
(§2) FIG. 5. Galunisertib improves cell proliferation and the WNT signaling in the bulb epithelial compartment. a) Representative IHC images of tissue sections of HFOCs untreated and treated with Galunisertib and stained for KI67 and cleaved caspase 3. Nuclei were counterstained with DAPI. Scale bar, 100 μm. b,c) Adjusted intensity levels of KI67 and cleaved caspase 3 per DP and HB (bulb epithelium) areas, respectively, as measured in tissue sections from HFOCs with and without Galunisertib. All values are mean±SD of HFOCs established from n=8 donors (n>16 HFs per condition). ns p≥0.05, *p≤0.05 by unpaired t-test.
(§3) For immunohistochemistry, 2-day HFOCs are used for immunohistochemistry analysis. Briefly, HFs were embedded on a drop of OCT and stored at −80° C. 8 μm cryosections are air-dried and fixed in 4% PFA (for TGFβ2, cleavage Caspase 3, p-SMAD2 and KI67 immunostainings) or cold acetone (for LEF1 and β-catenin immunostaining). Following 2×5 min rinse with PBS, microsections are permeabilized 2× for 10 min with PBS+0.3% Triton X 100 (PBS-T) and then blocked with PBS+10% fetal bovine serum (FBS) for 1 hour at room temperature. Antibodies are diluted in PBS-T+1% FBS and incubation done overnight at 4° C. […]

Data set [1] in a line: Mass spectrometry of skin biopsies. It counts as in vivo, mouse. The settings on record: skin retrieved at day 14, N=3, mean±SD. How it is done:
For mass spectrometry of skin biopsies, dorsal skin of mice under 10 μM and 100 μM galunisertib topical treatment for 14 days is collected after anesthesia (Ketamine 150 mg/kg+Medetomidine 2 mg/kg) and perfusion with PBS. Skin samples are snap frozen and stored at −80° C. until being sent for mass spec analysis by Cyprotex. Skin samples from N=3 animals per condition are homogenized 1:4 in mouse plasma, then quantified against a mouse plasma calibration curve. Analytical runs meeting calibration standard and QC acceptance criteria.

Data set [2] has as its system C57BL/6 depilated male mice. Nature of the data set: Hair growth in depilated mice under topical treatment (photographs, trichoscopy). The class given is in vivo, mouse. The settings on record: for hair growth in magnified photographs of depilated areas: day 9, vs vehicle control. How it is done:
FIG. 7. Galunisertib induces hair growth in C57BL/6J mice. a) Mouse treatment scheme. 7-week-old C57BL/6J mice were depilated (day −2) and 2 days later (day 0) started being treated with vehicle (70% ethanol), galunisertib (10 μM and 100 μM) or 3% minoxidil for 21 non-continuous days. b) Photographs of C57BL/6J mice treated with vehicle (control), 10 μM and 100 μM galunisertib or 3% minoxidil at days 0, 5, 9 and 14. c) Magnified photographs of the depilation site of C57BL/6J mice treated with vehicle (Ctr), galunisertib (10 and 100 μM) or minoxidil at days 7 and 9. d) Trichoscopy images of depilated regions at days 8 and 10. N≥3 animals were used per timepoint per condition for image and skin collection; e) Mass spectrometry analysis of skin biopsies retrieved at day 14 from animals treated with 10 μM and 100 μM galunisertib. Values are mean±SD of n=3 animals per condition.
Mice are six-week-old male C57BL/6J mice purchased from the Charles River Laboratories. The animals are housed and allowed to adapt to the laboratory environment for one week before experiments start. Animals are maintained under a 12 h light/dark cycle and fed with regular rodent's chow and tap water ad libitum, at the i3S animal facility.
For depilation and treatments in order to synchronize hair growth cycle in mice, anagen is induced by depilation. Seven-week-old male C57BL/6J mice are anesthetized using 3% isoflurane and their back is shaved using a hair shaver. Hair is then further depilated using cold wax bands (Veet Minima). After the depilation, the excess of wax is removed with mineral oil, and a skin protector spray, Douxo Calm Sérum, is applied, followed by Cavilon, a barrier film spray. To allow for skin to fully recover, topical treatments started two days later. During the procedures mice are under volatile anesthesia (3% isoflurane) and are kept warmed. Mice are photographed with a camara or a trichoscope (Dino-Lite), before topical application of galunisertib (10 μM and 100 μM), minoxidil (3%) or vehicle (70% ethanol). Topical applications are performed using a syringe in order to cover the depilated area only. Hair growth is followed for 21 days, although telogen is apparent at day 18 post-treatment.

Data set [3] concerns Ki67 proliferation marker. Nature of the data set: Immunohistochemistry of cryo-sectioned HFOCs: Ki67. The class given is cell-based, human. The settings on record: HFOCs treated with Galunisertib for 48 h vs untreated.
Source text: as §1, §2, §3

A further data set concerns TGFβ2 protein. Nature of the data set: Immunohistochemistry of cryo-sectioned HFOCs: TGFβ2. The class given is cell-based, human.
Source text: as §1
FIG. 4. Galunisertib inhibits TGFβ2 paracrine signaling in the bulb epithelial compartment. a) Representative Immunohistochemistry (IHC) images of tissue sections of HFOCs untreated and treated with Galunisertib as indicated and stained for TGFβ2 and p-SMAD2. In the upper left frame is exemplified how the dermal papilla (DP) and adjacent bulb epithelial compartment (HB) regions were delineated for quantitative analyses shown in b-e. Nuclei were counterstained with DAPI. Scale bar, 100 μm. b-e) Adjusted intensity levels of TGFβ2 and p-SMAD2 per DP and HB areas as measured in tissue sections from untreated and Galunisertib-treated HFOCs. Values are mean±SD of HFOCs established from n=4 donors (n>9 HFs per condition). ns p≥0.05, *p≤0.05 by unpaired t-test.
For immunohistochemistry, 2-day HFOCs are used for immunohistochemistry analysis. Briefly, HFs were embedded on a drop of OCT and stored at −80° C. 8 μm cryosections are air-dried and fixed in 4% PFA (for TGFβ2, cleavage Caspase 3, p-SMAD2 and KI67 immunostainings) or cold acetone (for LEF1 and β-catenin immunostaining). Following 2×5 min rinse with PBS, microsections are permeabilized 2× for 10 min with PBS+0.3% Triton X 100 (PBS-T) and then blocked with PBS+10% fetal bovine serum (FBS) for 1 hour at room temperature. […]

In a further data set the test system is LEF1. Nature of the data set: Immunohistochemistry of cryo-sectioned HFOCs: LEF1. The class given is cell-based, human. To be noted: Galunisertib 48 h vs untreated.
Source text: as §1
(§4) FIG. 6. Galunisertib improves the WNT signaling in the bulb epithelial compartment. a) Representative IHC images of tissue sections of HFOCs with and without Galunisertib and stained for LEF1 (red) and β-catenin (green). Nuclei were counterstained with DAPI (blue). Scale bar, 100 μm. b,e) Adjusted intensity levels of LEF1 and β-catenin per DP and HB (bulb epithelium) areas, as measured in tissue sections from HFOCs with and without Galunisertib. All values are mean±SD of HFOCs established from n=4 donors (n>8 HFs per condition). ns p≥0.05, *p≤0.05 by unpaired t-test.
as §3

The subject of a further data set is β-catenin. In words: Immunohistochemistry of cryo-sectioned HFOCs: β-catenin. The class given is cell-based, human. To be noted: DP adjacent epithelial compartment; Galunisertib 48 h vs untreated.
Source text: as §1, §4, §3

On to `Cc1cccc(-c2nn3c(c2-c2ccnc4ccc(C(N)=O)cc24)CCC3)n1` [Galunisertib], for which, in the data set with cleaved Caspase 3, the “fluorescence intensity levels of cleaved Caspase 3” value was “do not show significant changes”. Besides, the “concentration of compound in skin biopsies” value was 1.6 ± 0.7 µM in data set [1] (topical 10 μM galunisertib) and 9.6 ± 0.6 µM in data set [1] (topical 100 μM galunisertib). The adverse side effects result in data set [2] (mice under topical galunisertib (10 and 100 μM)) was “no apparent adverse side effects”. Also, the “hair growth in magnified photographs of depilated areas” value is on record as “marked improvement of hair growth” in data set [2] (topical 10 μM galunisertib) and “marked improvement of hair growth” in data set [2] (topical 100 μM galunisertib, ranked after 10 μM galunisertib). The “hair density by trichoscopy examination of depilated regions” value in data set [2] (topical galunisertib, in particular 10 μM, days 8 and 10) is “increased hair density”. In addition, in data set [2] (topical, galunisertib 10 and 100 μM, minoxidil 3%, vs. control mice, day 5 to day 14), the “macroscopic assessment of hair growth: darkness of depilated area (hair density)” value is listed as “consistently darker”. The “number of bulb epithelial cells staining positive for Ki67” value in data set [3] was “increased number”. In data set [3] (bulb epithelium), the “Ki67 fluorescence intensity levels” value was “higher”. Moreover, the “TGFβ2 fluorescence intensity levels at the bulb epithelial compartment” value with TGFβ2 protein (bulb epithelial compartment surrounding the DP, Galunisertib 48 h vs untreated) is reported as “decreased levels”. For the same compound, the “DP levels of TGFβ2 (fluorescence intensity)” value with TGFβ2 protein (dermal papilla, HFOCs with or without Galunisertib for 48 h) was “isn't any significant change”. In addition, in the data set on LEF1 (bulb epithelium), the “LEF1 levels in the bulb epithelium” value was “increased levels”. The “LEF1 levels in the DP” value in the data set with LEF1 (dermal papilla) is listed as “not significantly upregulated”. The β-catenin intensity levels result with β-catenin is recorded as “significantly enhances”.
